{
  "source": "patent US9169254B2",
  "about": "“Spiroimidazolone derivative” (Chugai Seiyaku Kabushiki Kaisha, priority 2009, dated 2015)",
  "data": [
    {"biological_target": "T1, human PTH1 receptor (Homo sapiens, UniProt Q03431)", "T1 sequence (Q03431 27-593)": "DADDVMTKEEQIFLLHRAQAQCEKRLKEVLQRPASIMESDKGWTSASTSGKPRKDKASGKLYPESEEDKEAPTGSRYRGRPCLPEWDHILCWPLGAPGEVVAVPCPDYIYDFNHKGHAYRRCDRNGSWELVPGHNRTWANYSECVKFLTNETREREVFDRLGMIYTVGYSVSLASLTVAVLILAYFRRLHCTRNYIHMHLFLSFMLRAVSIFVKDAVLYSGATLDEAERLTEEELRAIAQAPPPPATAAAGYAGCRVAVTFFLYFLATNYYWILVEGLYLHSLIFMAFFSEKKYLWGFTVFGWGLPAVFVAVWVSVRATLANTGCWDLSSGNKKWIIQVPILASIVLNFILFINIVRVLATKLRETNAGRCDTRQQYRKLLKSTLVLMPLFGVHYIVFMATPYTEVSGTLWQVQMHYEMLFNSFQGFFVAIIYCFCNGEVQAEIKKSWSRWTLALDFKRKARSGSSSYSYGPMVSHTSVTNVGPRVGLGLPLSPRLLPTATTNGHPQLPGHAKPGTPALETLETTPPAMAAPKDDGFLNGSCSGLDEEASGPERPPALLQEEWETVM", "assay": "In vitro cAMP signal activity in HKRK-B7 cells (LLC-PK1 cells overexpressing the human PTH1 receptor)", "format": "cell-based", "conditions": "HKRK-B7 cells; compound at 1×10^−3 M; cAMP produced as percentage of that produced by hPTH(1-34) at 100 nM", "units": {"cAMP production activity (%)": "%"}, "values": [
      {"compound": "Cc1cc(CN2CCCC2=O)cc(C)c1CCS(=O)(=O)N1CCC2(CC1)N=C(C1CCC(C)CC1)NC2=O", "note": "(centres unmarked) [Compound 781, 8-{2-[2,6-dimethyl-4-(2-oxo-pyrrolidin-1-ylmethyl)-phenyl]-ethanesulfonyl}-2-(4-methyl-cyclohexyl)-1,3,8-triaza-spiro[4.5]dec-1-en-4-one]", "cAMP production activity (%)": 30},
      {"compound": "Cc1cc(C(=O)N2CCN(C(C)C)CC2)ccc1CCS(=O)(=O)N1CCC2(CC1)N=C(c1cccc(OC(F)(F)F)c1)NC2=O", "note": "[Compound 849, 8-{2-[4-(4-isopropyl-piperazine-1-carbonyl)-2-methyl-phenyl]-ethanesulfonyl}-2-(3-trifluoromethoxy-phenyl)-1,3,8-triaza-spiro[4.5]dec-1-en-4-one]", "cAMP production activity (%)": 124},
      {"compound": "Cc1cc(C(=O)N2CCCC2)ccc1/C=C/S(=O)(=O)N1CCC2(CC1)N=C(c1cccc(C(F)(F)F)c1F)NC2=O", "note": "[Compound 248, 2-(2-fluoro-3-trifluoromethyl-phenyl)-8-{(E)-2-[2-methyl-4-(pyrrolidine-1-carbonyl)-phenyl]-ethenesulfonyl}-1,3,8-triaza-spiro[4.5]dec-1-en-4-one]", "cAMP production activity (%)": 66},
      {"compound": "O=C(C1CCc2ccccc2C1)N1CCCC(C2=NC3(CCN(S(=O)(=O)CCc4cccc5ccccc45)CC3)C(=O)N2)C1", "note": "(centres unmarked) [Compound 430, 8-(2-naphthalen-1-yl-ethanesulfonyl)-2-[1-(1,2,3,4-tetrahydro-naphthalene-2-carbonyl)-piperidin-3-yl]-1,3,8-triaza-spiro[4.5]dec-1-en-4-one]", "cAMP production activity (%)": 23},
      {"compound": "CCCCCc1ccc(C2=NC3(CCN([S@TB18](=O)(=O)/C=C/c4c(C)cc(N(C)C(N)=O)cc4C)CC3)C(=O)N2)cc1OC", "note": "[Compound 1128, 1-(4-{(E)-2-[2-(3-methoxy-4-pentyl-phenyl)-4-oxo-1,3,8-triaza-spiro[4.5]dec-1-ene-8-sulfonyl]-vinyl}-3,5-dimethyl-phenyl)-1-methyl-urea]", "cAMP production activity (%)": 119},
      {"compound": "CC(=O)N(C)Cc1cc(C)c(CCS(=O)(=O)N2CCC3(CC2)N=C(C2CCC(C)CC2)NC3=O)c(C)c1", "note": "(centres unmarked) [Compound 785, N-(3,5-dimethyl-4-{2-[2-(4-methyl-cyclohexyl)-4-oxo-1,3,8-triaza-spiro[4.5]dec-1-ene-8-sulfonyl]-ethyl}-benzyl)-N-methyl-acetamide]", "cAMP production activity (%)": 92},
      {"compound": "CN(C)C(=O)c1cccc(C2=NC3(CCN(S(=O)(=O)c4cccc(Cl)c4)CC3)C(=O)N2)c1", "note": "[Compound 351, 3-[8-(3-chloro-benzenesulfonyl)-4-oxo-1,3,8-triaza-spiro[4.5]dec-1-en-2-yl]-N,N-dimethyl-benzamide]", "cAMP production activity (%)": 7.4},
      {"compound": "CC1=NC2(CCN(S(=O)(=O)c3cccc(Cl)c3)CC2)C(=O)N1", "note": "[Compound 8, 8-(3-chloro-benzenesulfonyl)-2-methyl-1,3,8-triaza-spiro[4.5]dec-1-en-4-one]", "cAMP production activity (%)": 2.6},
      {"compound": "Cc1cc(N(C)C(N)=O)cc(C)c1CCS(=O)(=O)N1CCC2(CC1)N=C(C(C)(F)F)NC2=O", "note": "[Compound 1311, 1-(4-{2-[2-(1,1-difluoro-ethyl)-4-oxo-1,3,8-triaza-spiro[4.5]dec-1-ene-8-sulfonyl]-ethyl}-3,5-dimethyl-phenyl)-1-methyl-urea]", "cAMP production activity (%)": 79},
      {"compound": "Cc1cc(S(=O)(=O)NC2CCC(O)CC2)ccc1CCS(=O)(=O)N1CCC2(CC1)N=C(c1cccc(C(F)(F)F)c1)NC2=O", "note": "(centres unmarked) [Compound 853, N-(4-hydroxy-cyclohexyl)-3-methyl-4-{2-[4-oxo-2-(3-trifluoromethyl-phenyl)-1,3,8-triaza-spiro[4.5]dec-1-ene-8-sulfonyl]-ethyl}-benzenesulfonamide]", "cAMP production activity (%)": 63},
      {"compound": "Cc1cc(S(=O)(=O)NC[C@@H](O)CO)ccc1CCS(=O)(=O)N1CCC2(CC1)N=C(c1cccc(OC(F)(F)F)c1)NC2=O", "note": "[Compound 851, N—((R)-2,3-dihydroxy-propyl)-3-methyl-4-{2-[4-oxo-2-(3-trifluoromethoxy-phenyl)-1,3,8-triaza-spiro[4.5]dec-1-ene-8-sulfonyl]-ethyl}-benzenesulfonamide]", "cAMP production activity (%)": 83}
    ]}
  ]
}
